Results on 20 compounds are retold here after US12098148B2, “Therapeutic compounds” (C4X Discovery Limited, priority 2018, dated 2024).

Molecules are shown by their SMILES.

The test system of test [1] is NQO1 mRNA in BEAS-2B cells. The experiment in a line: Beas2B NQO1 mRNA cell based assay. Set-up: species or system human. The conditions noted are these: Homo sapiens, BEAS-2B, 24 h, 24 h compound treatment, increase in NQO1 mRNA vs vehicle (0.1% DMSO), read-out: EC50. In outline:
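BEAS-2B human bronchial epithelial cells exposed to compound for 24 h at 37 °C, 5% CO2. NQO1 mRNA measured by one-step TaqMan RT-qPCR on unpurified lysates, normalized to β-actin; relative expression by ΔΔCT method.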

Test [2] addresses human KEAP1 (N-term, residues 321-609) (Homo sapiens, UniProt Q14145). The experiment in a line: biochemical.
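Throughout, for IC50: fluorescence polarization competition assay of Kelch domain binding to NRF2, 12-point 1:3 dilution series from 10 µM, read after 1 h at room temperature, floor 10 nM.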

human KEAP1 (N-term, residues 321-609), sequence (Q14145 321-609): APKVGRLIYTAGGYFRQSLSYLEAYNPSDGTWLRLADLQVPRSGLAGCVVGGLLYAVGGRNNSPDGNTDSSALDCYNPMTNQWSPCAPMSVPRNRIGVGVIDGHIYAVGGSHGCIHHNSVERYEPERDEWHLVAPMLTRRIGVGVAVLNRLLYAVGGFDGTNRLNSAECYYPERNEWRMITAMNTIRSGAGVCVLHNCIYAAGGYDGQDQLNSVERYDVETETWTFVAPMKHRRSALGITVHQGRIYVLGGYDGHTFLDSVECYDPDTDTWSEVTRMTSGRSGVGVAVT

`Cn1cc(COc2ccc(Cl)c3c2[C@@H](CN2CCCC2=O)N(C(=O)[C@@H]2CCCC[C@@H]2C(=O)O)CC3)nn1` [Example 104, (1S,2R)-2-((S)-5-Chloro-8-((1-methyl-1H-1,2,3-triazol-4-yl)methoxy)-1-((2-oxopyrrolidin-1-yl)methyl)-1,2,3,4-tetrahydroisoquinoline-2-carbonyl)cyclohexane-1-carboxylic acid]: the half-maximal effective concentration (EC50) in test [1] was found to be 27 nM. In test [2], half-maximal inhibition (IC50) required 5.5 nM.
The like results for `Cc1nnc(COc2ccc(Cl)c3c2[C@@H](CN2CC4(CC4)CC2=O)N(C(=O)[C@@H]2CCCC[C@]2(C)C(=O)O)CC3)n1C` [Example 179, (1S,2R)-2-((S)-5-chloro-8-((4,5-dimethyl-4H-1,2,4-triazol-3-yl)methoxy)-1-((6-oxo-5-azaspiro[2.4]heptan-5-yl)methyl)-1,2,3,4-tetrahydroisoquinoline-2-carbonyl)-1-methylcyclohexane-1-carboxylic acid] were, in that order, 4.1 nM and 5.3 nM.
For `CC(C)n1cc(COc2ccc(C#N)c3c2[C@@H](CN2Cc4ccccc4C2=O)N(C(=O)[C@@H]2CCCC[C@@H]2C(=O)O)CC3)nn1` [Example 60, (1S,2R)-2-((S)-5-cyano-8-((1-isopropyl-1H-1,2,3-triazol-4-yl)methoxy)-1-((1-oxoisoindolin-2-yl)methyl)-1,2,3,4-tetrahydroisoquinoline-2-carbonyl)cyclohexane-1-carboxylic acid], in that order: 2.8 nM and 96 nM.
The like results for `Cn1nnc(COc2ccc(Cl)c3c2[C@@H](CN2CCCC2=O)N(C(=O)[C@@H]2CCC[C@@H]2C(=O)O)CC3)c1C(F)F` [Example 86, (1S,2R)-2-((S)-5-Chloro-8-((5-(difluoromethyl)-1-methyl-1H-1,2,3-triazol-4-yl)methoxy)-1-((2-oxopyrrolidin-1-yl)methyl)-1,2,3,4-tetrahydroisoquinoline-2-carbonyl)cyclopentane-1-carboxylic acid] were, in that order, 8.3 nM and 5 nM.
As to `C[C@@H]1CC(=O)N(C[C@@H]2c3c(OCc4nnn(C)c4C(F)F)ccc(Cl)c3CCN2C(=O)[C@@H]2CCC[C@]2(C)C(=O)O)C1` [Example 109, (1S,2R)-2-((S)-5-Chloro-8-((5-(difluoromethyl)-1-methyl-1H-1,2,3-triazol-4-yl)methoxy)-1-(((R)-4-methyl-2-oxopyrrolidin-1-yl)methyl)-1,2,3,4-tetrahydroisoquinoline-2-carbonyl)-1-methylcyclopentane-1-carboxylic acid], the EC50 in test [1] was found to be 7.4 nM. Besides, the IC50 in test [2] worked out at 9.7 nM.
In the case of `CC(Oc1ccc(Br)c2c1[C@@H](CN1Cc3ccccc3C1=O)N(C(=O)[C@@H]1CCCC[C@@H]1C(=O)O)CC2)c1cn(C)nn1` (stereo partly drawn) [Example 45, (1S,2R)-2-((1S)-5-bromo-8-(1-(1-methyl-1H-1,2,3-triazol-4-yl)ethoxy)-1-((1-oxoisoindolin-2-yl)methyl)-1,2,3,4-tetrahydroisoquinoline-2-carbonyl)cyclohexane-1-carboxylic acid], the EC50 in test [1] was 110 nM. The same compound returned a half-inhibitory concentration (IC50) in test [2] of 4.9 nM.
For `Cn1nnc2cc(COc3ccc(Cl)c4c3[C@@H](CN3Cc5ccccc5C3=O)N(C(=O)[C@@H]3CCCC[C@@H]3C(=O)O)CC4)ccc21` [Example 48, (1S,2R)-2-((S)-5-chloro-8-((1-methyl-1H-benzo[d][1,2,3]triazol-5-yl)methoxy)-1-((1-oxoisoindolin-2-yl)methyl)-1,2,3,4-tetrahydroisoquinoline-2-carbonyl)cyclohexane-1-carboxylic acid], in that order: 4.4 nM and 8 nM.
For `Cn1nnc(COc2ccc(Cl)c3c2[C@@H](CN2CC4(CC4)CC2=O)N(C(=O)[C@@H]2C[C@H](O)CC[C@]2(C)C(=O)O)CC3)c1C(F)F` [Example 225, (1S,2R,4R)-2-((S)-5-chloro-8-((5-(difluoromethyl)-1-methyl-1H-1,2,3-triazol-4-yl)methoxy)-1-((6-oxo-5-azaspiro[2.4]heptan-5-yl)methyl)-1,2,3,4-tetrahydroisoquinoline-2-carbonyl)-4-hydroxy-1-methylcyclohexane-1-carboxylic acid], in that order: 110 nM and 6.5 nM.
The like results for `CC(C)n1cc(COc2ccc(F)c3c2[C@@H](CN2Cc4ccccc4C2=O)N(C(=O)[C@@H]2CCCC[C@@H]2C(=O)O)CC3)nn1` [Example 58, (1S,2R)-2-((S)-5-fluoro-8-((1-isopropyl-1H-1,2,3-triazol-4-yl)methoxy)-1-((1-oxoisoindolin-2-yl)methyl)-1,2,3,4-tetrahydroisoquinoline-2-carbonyl)cyclohexane-1-carboxylic acid] were, in that order, 68 nM and 8 nM.
With `CC(=O)N1CC[C@H](Oc2ccc(Br)c3c2[C@@H](CN2Cc4ccccc4C2=O)N(C(=O)[C@@H]2CCCC[C@@H]2C(=O)O)CC3)C1` [Example 19, (1S,2R)-2-((S)-8-(((S)-1-acetylpyrrolidin-3-yl)oxy)-5-bromo-1-((1-oxoisoindolin-2-yl)methyl)-1,2,3,4-tetrahydroisoquinoline-2-carbonyl)cyclohexane-1-carboxylic acid], the EC50 in test [1] came to 130 nM. The IC50 in test [2] stood at 9.7 nM.
As to `Cc1cnc(COc2ccc(Br)c3c2[C@@H](CN2CCCC2=O)N(C(=O)[C@@H]2CCCC[C@@H]2C(=O)O)CC3)s1` [Example 65, (1S,2R)-2-((S)-5-bromo-8-((5-methylthiazol-2-yl)methoxy)-1-((2-oxopyrrolidin-1-yl)methyl)-1,2,3,4-tetrahydroisoquinoline-2-carbonyl) cyclohexane-1-carboxylic acid], in test [1], the 50% effective concentration (EC50) stood at 97 nM. This compound also gave an IC50 in test [2] of 11 nM.
The like results for `Cn1cc(COc2ccc(Cl)c3c2[C@@H](CN2CCCC2=O)N(C(=O)[C@@H]2CCCC[C@]2(C)C(=O)O)CC3)nn1` [Example 106, (1S,2R)-2-((S)-5-chloro-8-((1-methyl-1H-1,2,3-triazol-4-yl)methoxy)-1-((2-oxopyrrolidin-1-yl)methyl)-1,2,3,4-tetrahydroisoquinoline-2-carbonyl)-1-methylcyclohexane-1-carboxylic acid] were, in that order, 2.9 nM and 5.1 nM.
For `Cc1ncc(C(=O)N2CC[C@H](Oc3ccc(Br)c4c3[C@@H](CN3Cc5ccccc5C3=O)N(C(=O)[C@@H]3CCCC[C@@H]3C(=O)O)CC4)C2)s1` [Example 20, (1S,2R)-2-((S)-5-Bromo-8-(((S)-1-(2-methylthiazole-5-carbonyl)-pyrrolidin-3-yl)oxy)-1-((1-oxoisoindolin-2-yl)methyl)-1,2,3,4-tetrahydroisoquinoline-2-carbonyl)cyclohexane-1-carboxylic acid], in that order: 20 nM and 5.4 nM.
The like results for `Cn1cnnc1COc1ccc(Br)c2c1[C@@H](CN1Cc3ccccc3C1=O)N(C(=O)[C@@H]1CCCC[C@@H]1C(=O)O)CC2` [Example 23, (1S,2R)-2-((S)-5-bromo-8-((4-methyl-4H-1,2,4-triazol-3-yl)methoxy)-1-((1-oxoisoindolin-2-yl)methyl)-1,2,3,4-tetrahydroisoquinoline-2-carbonyl)cyclohexane-1-carboxylic acid] were, in that order, 33 nM and 10 nM.
Regarding `O=C(O)[C@H]1CCCC[C@H]1C(=O)N1CCc2c(Cl)ccc(OCc3nnc4ccccn34)c2[C@H]1CN1Cc2ccccc2C1=O` [Example 50], in test [1], the EC50 was determined as 2 nM. 7.7 nM corresponded to half-maximal inhibition in test [2] (IC50).
For `Cn1nnc(COc2ccc(Cl)c3c2[C@@H](CN2CC4(CC4)CC2=O)N(C(=O)[C@@H]2CCC[C@]2(C)C(=O)O)CC3)c1C(F)F` [Example 110, (1S,2R)-2-((S)-5-Chloro-8-((5-(difluoromethyl)-1-methyl-1H-1,2,3-triazol-4-yl)methoxy)-1-((6-oxo-5-azaspiro[2.4]heptan-5-yl)methyl)-1,2,3,4-tetrahydroisoquinoline-2-carbonyl)-1-methylcyclopentane-1-carboxylic acid], in that order: 1.3 nM and 6.3 nM.
On to `CC(=O)N1CC[C@H](Oc2ccc(Cl)c3c2[C@@H](CN2CC4(CC4)CC2=O)N(C(=O)[C@@H]2CCCC[C@]2(C)C(=O)O)CC3)C1` [Example 188, (1S,2R)-2-((S)-8-(((S)-1-acetylpyrrolidin-3-yl)oxy)-5-chloro-1-((6-oxo-5-azaspiro [2.4]heptan-5-yl)methyl)-1,2,3,4-tetrahydroisoquinoline-2-carbonyl)-1-methylcyclohexane-1-carboxylic acid], for which the concentration giving a half-maximal response (EC50) in test [1] turned out to be 7.9 nM. Besides, it took 4.9 nM to reach half-maximal inhibition in test [2] (IC50).
The like results for `Cn1nnc(COc2ccc(Cl)c3c2[C@@H](CN2CC4(CC4)CC2=O)N(C(=O)[C@@H]2CCCO[C@@H]2C(=O)O)CC3)c1C(F)F` [Example 226, (2S,3R)-3-((S)-5-chloro-8-((5-(difluoromethyl)-1-methyl-1H-1,2,3-triazol-4-yl)methoxy)-1-((6-oxo-5-azaspiro[2.4]heptan-5-yl)methyl)-1,2,3,4-tetrahydroisoquinoline-2-carbonyl)tetrahydro-2H-pyran-2-carboxylic acid] were, in that order, 14 nM and 5 nM.
The like results for `O=C(O)[C@H]1CCCC[C@H]1C(=O)N1CCc2c(Cl)ccc(OCc3cncnc3)c2[C@H]1CN1CCCC1=O` [Example 85] were, in that order, 34 nM and 9.9 nM.
For `CC(=O)N1CC[C@H](Oc2ccc(Br)c3c2[C@@H](CN2C(=O)c4ccccc4C2=O)N(C(=O)[C@@H]2CCCC[C@@H]2C(=O)O)CC3)C1` [Example 11, (1S,2R)-2-((S)-8-(((S)-1-Acetylpyrrolidin-3-yl)oxy)-5-bromo-1-((1,3-dioxoisoindolin-2-yl)methyl)-1,2,3,4-tetrahydroisoquinoline-2-carbonyl)cyclohexane-1-carboxylic acid], in that order: 3.5 nM and 5.1 nM.
